These results are taken from patent US20150211005A1, “MIRNA MODULATORS OF THERMOGENESIS” (APTAMIR THERAPEUTICS, INC., priority 2012, published 2015).

The test system of one test is UCP1. Description: RNA-Seq mRNA expression during pre-adipocyte differentiation: UCP1. The conditions noted are these: pre-adipocytes, 12 days, rosiglitazone 100 nM renewed every other day, miRNA analogs 25 nM, one transfection. It is filed as cell-based, human. On the procedure:
(§1) In order to assess the effect of miRNA analogs on human pre-adipocytes differentiation into mature adipocytes, human subcutaneous pre-adipocytes (SuperLot 0048 from 8 female donors, ZenBio, NC) were plated on Day 0 into 96-well plates and allowed to attach overnight in preadipocyte medium (DMEM/Ham's F-12 (1:1, v/v), HEPES buffer, Fetal bovine serum and Antibiotics). […] All treatments were in triplicate. Post transfection, the negative control was maintenance medium only and the positive control was maintenance medium with 100 nM of the PPARG agonist rosiglitazone. After 2 days, medium was removed and replaced with fresh maintenance medium. The maintenance medium then changed every two days until the end of the treatment period (Day 15). At the end of the treatment (total of 15 days in culture) cells were processed for Phenotyping and Genotyping Screening.
(§2) Profiling of mRNA changes occurring during the differentiation of human pre-adipocyte into mature adipocyte induced by rosiglitazone or miRNA analogs was performed by RNA-Seq technology. […]
(§3) Changes in mRNA expression of UCP1, 2 and 3 were also measured in the presence of rosiglitazone or miRNA analogs, as shown below in Table 18.

Another test deals with UCP3. Description: RNA-Seq mRNA expression during pre-adipocyte differentiation: UCP3. The following applies: pre-adipocytes, 12 days, rosiglitazone 100 nM renewed every other day, miRNA analogs 25 nM, one transfection. It is filed as cell-based, human. The protocol:
as §1, §2, §3

Test [1] deals with human subcutaneous adipocytes. Description: Phenotypic changes of mature adipocytes cultured two weeks, bright field microscopy. The conditions noted are these: day 28; for Average size of lipid droplet: change versus control (Ref); for Average size of lipid droplet / Picture field covered by adipocytes (% of control) / Cell area occupied by lipid droplets (%) / Number of lipid droplet per cell: 50 nM miRNA analogs, 10 μM CL316,243, 10 nM T3, 100 nM Rosiglitazone; for Picture field covered by adipocytes (% of control): Dharmafect 4; for Cell area occupied by lipid droplets (%): control 42%; for Number of lipid droplet per cell: control 68. The format is cell-based. The protocol:
Human subcutaneous adipocytes were plated in 6-well plates at a density of 391,000 cells per well as described above. Using Dharmafect 4, these adipocytes were transfected at Day 14 with:
1. […] A negative control (mock transfection) 3.
At day 17, the cells were switched to maintenance medium, which was then changed every two-three days until day 28 when bright field microscopy pictures of the cells were taken.

Molecules are shown by their SMILES.

`CN(CCOc1ccc(CC2SC(=O)NC2=O)cc1)c1ccccn1` (centres unmarked) [Rosiglitazone]: the “mRNA Expression changes UCP1” value with UCP1 came out at 15.70 log ratios. Moreover, the “mRNA Expression changes UCP3” value in the test with UCP3 was determined as 0.26 log ratios. In addition, in test [1], the “Average size of lipid droplet” value is recorded as −19%, the “Picture field covered by adipocytes (% of control)” value is “+198% of control”, the “Cell area occupied by lipid droplets (%)” value is 57% and the “Number of lipid droplet per cell” value came out at 113.

Turning to `C[C@H](Cc1ccc2c(c1)OC(C(=O)[O-])(C(=O)[O-])O2)NC[C@H](O)c1cccc(Cl)c1.[Na+].[Na+]` [CL316,243], in test [1], the “Average size of lipid droplet” value was −44%, the “Picture field covered by adipocytes (% of control)” value is “+24% of control”, the “Cell area occupied by lipid droplets (%)” value was determined as 44% and the “Number of lipid droplet per cell” value worked out at 124. Moreover, in test [1] (in reference to the control condition), the “cell density and browning appearance (bright field, FIG. 22)” value was “increase in cell density and “browning” appearance”.
